Here are results for 23 molecules from PubChem BioAssay (NCI).

Structures are written as SMILES. Where “and” joins values, the source holds several entries; their conditions need not be identical. Equal entries are not always repeated.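 A five-concentration, 48-hour dose response in 96-well plates underlies each endpoint, interpolated linearly between surrounding concentrations. The concentration for 50% growth inhibition is given as GI50. TGI: concentration producing complete growth inhibition.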

Test systems include SR leukemia; OVCAR-4 ovarian; DU-145 prostate; M14 melanoma; NCI-H226 lung; A549 NSCLC; UACC-257 melanoma; HCC-2998 colon; MCF7 breast; SF-539 CNS.
What all share (assay): NCI tumour cell line growth inhibition, 48 h

Consider `COc1ccc(CC(O)CN2CCOCC2)cc1` (centres undefined), for which the TGI in the test on SR leukemia, with OVCAR-4 ovarian, in the test on DU-145 prostate, in the test with M14 melanoma, with NCI-H226 lung and in the test with A549 NSCLC was > 100 µM each time. Besides, the TGI in the test with UACC-257 melanoma is > 100 µM.

Take `COc1cc(NS(C)(=O)=O)ccc1N1Cc2cnc3ccc4[nH]c(C)cc1c4c23`: the TGI with HCC-2998 colon, with OVCAR-4 ovarian, in the test with DU-145 prostate, with M14 melanoma, in the test with MCF7 breast and in the test on NCI-H226 lung was > 100 µM throughout. Also, the TGI in the test with A549 NSCLC and in the test on UACC-257 melanoma was > 100 µM throughout.

With `c1ccc2sc(SCSc3nc4ccccc4s3)nc2c1`, the TGI in the test with SR leukemia, with HCC-2998 colon, in the test on OVCAR-4 ovarian, in the test on DU-145 prostate, with M14 melanoma and in the test with NCI-H226 lung was > 100 µM throughout. Also, the TGI in the test on A549 NSCLC and with UACC-257 melanoma was > 100 µM in each case.

As for `COc1ccc2cc(-c3ccc(-c4ccc(C(=N)N)s4)s3)ccc2c1`, the GI50 in the test on SR leukemia is 0.851 µM; in the test on HCC-2998 colon, 3.35 µM; in the test on DU-145 prostate, 1.7 µM; with M14 melanoma, 4 µM; in the test with SF-539 CNS, 3.91 µM; in the test on NCI-H226 lung, 23.6 µM. Besides, the GI50 in the test on UACC-257 melanoma is 19.6 µM. The TGI worked out at 3.38 µM in the test with SR leukemia; 11.7 µM in the test with HCC-2998 colon; 3.32 µM in the test with DU-145 prostate; 15.7 µM with M14 melanoma; 19.2 µM in the test on SF-539 CNS; 59.3 µM with NCI-H226 lung. The molecule further displayed a TGI in the test with UACC-257 melanoma of 35.4 µM.

On to `CC[C@H]1CN2CCc3cc(OC)c(OC)cc3[C@@H]2C[C@@H]1C[C@H]1NCCc2cc(OC)c(OC)cc21`, for which the TGI is 0.0943 µM and 0.0555 µM in the test with HCC-2998 colon; 0.0541 µM and 0.0117 µM with OVCAR-4 ovarian; 0.0643 µM in the test with DU-145 prostate; 0.0512 µM and 0.0606 µM with M14 melanoma; 0.164 µM and 0.476 µM in the test on NCI-H226 lung; 0.361 µM and 0.529 µM in the test on UACC-257 melanoma.

Regarding `O=C1c2cc3c(cc2CC1Br)CCC3` (centres undefined), the TGI stood at 13.4 µM with HCC-2998 colon; 3.86 µM in the test on OVCAR-4 ovarian; 29.4 µM in the test with DU-145 prostate; 2.85 µM in the test on M14 melanoma; 4.2 µM with SF-539 CNS; 11.4 µM with NCI-H226 lung. Besides, the TGI stood at 38.7 µM in the test on A549 NSCLC and 5.1 µM in the test with UACC-257 melanoma.

For the molecule `O=C(NCCN1CCOCC1)c1ccc2cc(C(=O)N3CC(CCl)c4ccc([N+](=O)[O-])cc43)[nH]c2c1` (centres undefined), the TGI with HCC-2998 colon was 29.7 µM; in the test on OVCAR-4 ovarian, 32.6 µM; in the test on DU-145 prostate, 49.3 µM; with M14 melanoma, > 100 µM; in the test on SF-539 CNS, > 100 µM; in the test on MCF7 breast, > 100 µM. For the same molecule, the values for the TGI with NCI-H226 lung, in the test on A549 NSCLC and with UACC-257 melanoma were > 100 µM, 26.1 µM and 86.8 µM, respectively.

As for `O=c1oc(-c2ccc(O)c(O)c2)cc2cccc(O)c12`, the TGI is 37 µM in the test on HCC-2998 colon; 69.2 µM with OVCAR-4 ovarian; 70.2 µM with DU-145 prostate; 51.8 µM in the test on M14 melanoma; > 85.6 µM with SF-539 CNS; > 54.1 µM in the test on MCF7 breast. Further, the TGI was 58.7 µM with NCI-H226 lung, > 100 µM with A549 NSCLC and 61.3 µM with UACC-257 melanoma. Also, the GI50 in the test on NCI-H226 lung was 15.2 µM.

For the molecule `O=S(=O)(O)c1cc2ccc1/C=C\c1ccc(cc1S(=O)(=O)O)N=Nc1ccc(c(S(=O)(=O)O)c1)/C=C\c1ccc(cc1S(=O)(=O)O)N=N2`, the TGI in the test with HCC-2998 colon, in the test on OVCAR-4 ovarian, in the test on SF-539 CNS, in the test on MCF7 breast, in the test on NCI-H226 lung and in the test with A549 NSCLC was > 100 µM throughout. Also, the TGI in the test with UACC-257 melanoma was > 100 µM.

As to `BrC/C=C/C[P+](c1ccccc1)(c1ccccc1)c1ccccc1`, the TGI was > 100 µM in the test on HCC-2998 colon; > 100 µM in the test on OVCAR-4 ovarian; 82.4 µM in the test on M14 melanoma; 22.4 µM in the test with SF-539 CNS; > 100 µM in the test with A549 NSCLC; > 100 µM in the test with UACC-257 melanoma.

Turning to `O=C(NCCCN(CCCCN(CCCNC(=O)C(F)(F)F)Cc1ccccc1)Cc1ccccc1)C(F)(F)F`, the TGI is 14.7 µM with HCC-2998 colon; 68.1 µM with OVCAR-4 ovarian; 56.2 µM with DU-145 prostate; 12.1 µM in the test with M14 melanoma; 26.3 µM in the test on SF-539 CNS; 24.7 µM in the test with MCF7 breast. The TGI in the test with NCI-H226 lung is 34.4 µM; with A549 NSCLC it was 59.5 µM; with UACC-257 melanoma, 16.9 µM.

Consider `NNC(=O)c1ccc[n+](CCc2ccccc2)c1`, for which the TGI in the test with HCC-2998 colon, in the test with OVCAR-4 ovarian, with DU-145 prostate, in the test with M14 melanoma, in the test on MCF7 breast and in the test on NCI-H226 lung was > 100 µM each time. The TGI in the test with A549 NSCLC and in the test with UACC-257 melanoma was > 100 µM in each case.

For the molecule `CC(=O)O[C@]12CCCCCC1C1(O)C(O)CCC[C@H]12` (some centres undefined), the TGI in the test with SR leukemia, with OVCAR-4 ovarian, in the test on M14 melanoma, in the test with NCI-H226 lung, in the test on A549 NSCLC and in the test on UACC-257 melanoma was > 100 µM in each case.

`CCCCC1c2c([nH]c3ccccc23)C2C(=O)N(c3ccc(OC)cc3)C(=O)C2C1CCC` (centres undefined): the TGI was 8.22 µM with SR leukemia; > 10 µM in the test on HCC-2998 colon; > 10 µM with OVCAR-4 ovarian; > 10 µM in the test on DU-145 prostate; 8.53 µM in the test on M14 melanoma; 5.11 µM in the test on SF-539 CNS. Also, the TGI is > 10 µM in the test on NCI-H226 lung, > 10 µM with A549 NSCLC and 9.62 µM in the test on UACC-257 melanoma.

With `CCOC(=O)/C=C(\C)c1ccc(C)cc1C`, the TGI is 37.3 µM with SR leukemia; > 100 µM with HCC-2998 colon; > 100 µM in the test on OVCAR-4 ovarian; > 100 µM in the test with M14 melanoma; > 100 µM in the test on SF-539 CNS; > 100 µM with NCI-H226 lung. For the same molecule, the TGI in the test with A549 NSCLC and in the test with UACC-257 melanoma was > 100 µM in each case.

Turning to `COc1cc(C2SCC(=O)N2c2ccc(NC(=O)c3ccc(N4C(=O)CSC4c4cc(OC)c(OC)c(OC)c4)cc3)cc2)cc(OC)c1OC` (centres undefined), the TGI in the test with HCC-2998 colon, in the test with OVCAR-4 ovarian, with DU-145 prostate, in the test on M14 melanoma, with SF-539 CNS and in the test on MCF7 breast was > 100 µM throughout. The TGI in the test on A549 NSCLC and with UACC-257 melanoma was > 100 µM each time.

As to `O=c1ccc2cc3ccc4cccc5ccc(c2o1)c3c45`, the TGI is > 100 µM in the test with M14 melanoma, 21.9 µM with SF-539 CNS and 58.3 µM in the test on NCI-H226 lung.

For `Cc1cc(=O)c2c([nH]1)NS(=O)(=O)NC2=O`, the TGI with SR leukemia, with HCC-2998 colon, in the test with OVCAR-4 ovarian, with M14 melanoma, in the test on SF-539 CNS and in the test with NCI-H226 lung was > 100 µM each time. Further, the TGI with A549 NSCLC and with UACC-257 melanoma was > 100 µM each time.

In the case of `COCOc1ccc(Cn2c(=O)n(C)c(=O)c3c2ncn3C)cc1[N+](=O)[O-]`, the TGI in the test on SR leukemia, in the test with HCC-2998 colon, in the test with M14 melanoma, with SF-539 CNS, in the test with NCI-H226 lung and in the test on A549 NSCLC was > 100 µM throughout. In the test on UACC-257 melanoma, the TGI was > 100 µM.

On to `COc1cc([N+](=O)[O-])c(OC)cc1-c1nc2sc(Cl)cn2c1/C=N/Nc1ccccn1`, for which the GI50 is 0.0877 µM in the test on SR leukemia; 9.7 µM with SF-539 CNS; 11.1 µM with MCF7 breast; 12.1 µM in the test with NCI-H226 lung; > 50 µM with A549 NSCLC; > 50 µM in the test with UACC-257 melanoma. In addition, the TGI was 12.1 µM with SR leukemia; 16.8 µM with SF-539 CNS; 32 µM with MCF7 breast; 48.8 µM in the test with NCI-H226 lung; > 50 µM with A549 NSCLC; > 50 µM in the test on UACC-257 melanoma.

`COC(=O)c1c2c(cc3c1CC1(C3)Cc3cc4c(c(C(=O)OC)c3C1)CCCC4)CCCC2`: the TGI in the test with HCC-2998 colon, in the test on OVCAR-4 ovarian, in the test with M14 melanoma, in the test with SF-539 CNS, in the test on MCF7 breast and in the test on NCI-H226 lung was > 100 µM in each case. Further, the TGI with A549 NSCLC and in the test on UACC-257 melanoma was > 100 µM each time.

For `CC(=O)N/N=C1\NC(=O)C[C@H]2[C@@H]3CC=C4C[C@@H](OC(C)=O)CC[C@]4(C)[C@H]3CC[C@]12C`, the TGI with OVCAR-4 ovarian was 25.7 µM; with DU-145 prostate it was > 100 µM; in the test with M14 melanoma it was > 100 µM; with SF-539 CNS, 25.9 µM; in the test with MCF7 breast it was > 100 µM; in the test on NCI-H226 lung, 54.6 µM. Also, the TGI in the test on A549 NSCLC and in the test on UACC-257 melanoma was > 100 µM throughout.

For `C=CCNC(=S)/N=C/c1c(O)c2ccccc2oc1=O`, the TGI in the test with HCC-2998 colon, in the test on OVCAR-4 ovarian, in the test on M14 melanoma, in the test with SF-539 CNS, in the test on NCI-H226 lung and in the test on A549 NSCLC was > 100 µM throughout. Besides, the TGI with UACC-257 melanoma is > 100 µM.
